Read-outs that look alike come from different tables or passages of the source.
Legend:
Botrytis cinerea = experiment: Fungicidal activity against Botrytis cinerea, mycelial growth inhibition on PDA plate; format: cell-based; conditions: for activities against Botrytis cinerea (growth inhibition rating) / inhibition at 25 µg/mL: 25 mg/L; for inhibition at 0.1562 µg/mL: 0.1562 mg/L; for inhibition at 0.3125 µg/mL: 0.3125 mg/L; for inhibition at 0.625 µg/mL: 0.625 mg/L; for inhibition at 1.255 µg/mL: 1.255 mg/L; for inhibition at 25 µg/mL: read-out: activities against Botrytis cinerea (growth inhibition rating)
Protocol: (§1) Bioassay method: Stock solution of every test compound was prepared in an appropriate solvent such as N,N-dimethylformamide (DMF), and then diluted to the required test concentrations with sterile water containing 0.1% Tween 80; Pipetted 3 mL of test solution to 27 mL of potato dextrose agar (PDA) medium at 45° C. and poured into a Petri dish to prepare a plate after shaking thoroughly; 6 mm of diameter of fungi cake from the edge of 7-day-old […] colony was inoculated on the central of the plate, wherein mycelium facing down, and cultured in the culture tank at 28° C. The diameter of fungi spread was calculated 4 days later using the control group tested with the diluent only. Test was run 4 times. Data were subjected to EXCEL statistical software analysis and the growth inhibition of the tested compound was calculated according to the corresponding control, the activity was rated on the basis of percentage of growth inhibition using the following rating system: A, inhibition (%)>90; B, 90≧inhibition (%)>70; C, 70≧inhibition (%)>50; D, inhibition (%)≦50.
Fungicidal activities against Botrytis cinerea of compounds represented by the general formula (I) were evaluated with the corresponding method in Example 18, and some of the test results are shown in Table 6 to Table 8.

Sclerotinia sclerotiorum = experiment: Fungicidal activity against Sclerotinia sclerotiorum, mycelial growth inhibition on PDA plate; format: cell-based; conditions: for activities against Sclerotinia sclerotiorum (growth inhibition rating) / inhibition at 25 µg/mL: 25 mg/L; for inhibition at 0.1562 µg/mL: 0.1562 mg/L; for inhibition at 0.3125 µg/mL: 0.3125 mg/L; for inhibition at 0.625 µg/mL: 0.625 mg/L; for inhibition at 1.255 µg/mL: 1.255 mg/L; for inhibition at 25 µg/mL: read-out: activities against Sclerotinia sclerotiorum (growth inhibition rating)
Protocol: as §1

Alternaria alternata = experiment: Fungicidal activity against Alternaria alternata, mycelial growth inhibition on PDA plate; format: cell-based
Protocol: as §1
Fungicidal activities against Alternaria alternata of compounds represented by the general formula (I) were evaluated with the corresponding method in Example 18, and some of the test results are shown in Table 9 to Table 10.

Aphis fabae = experiment: Insecticidal activity against Aphis fabae, dipping of horsebean seedlings; format: in vivo; conditions: 24 h; for mortality at 500 µg/mL: read-out: activities against Aphis fabae (mortality rating)
Protocol: Bioassay method: Stock solution of every test compound was prepared in an appropriate solvent such as N,N-dimethylformamide, and a small amount of Tween 80 was added as emulsification agent, then diluted to the required test concentrations with distilled water, using the control group tested with distilled water only. More than 20 adults of Aphis fabae were transferred to newly unearthed horsebean seedlings and 24 hr later, horsebean seedlings with Aphis fabae were dipped in the test solution for 5 s, then allowed to dry with filter paper, transplanted to the absorbent sponge and covered with a glass tube, then kept in a room for normal cultivation. Each assay contained three replications, and results were averaged. Mortality was assessed 24 hr after the treatment. The activity was rated to A, B, C or D according to the rating system in Example 22.

[1] = Botrytis cinerea, Table 8, read-out: activities against Botrytis cinerea (growth inhibition)
[2] = Botrytis cinerea, 2.5 mg/L, Table 7, read-out: activities against Botrytis cinerea (growth inhibition)
[3] = Botrytis cinerea, 2.5 mg/L, Table 8, read-out: activities against Botrytis cinerea (growth inhibition)
[4] = Botrytis cinerea, 5 mg/L, Table 7, read-out: activities against Botrytis cinerea (growth inhibition)
[5] = Botrytis cinerea, 5 mg/L, Table 8, read-out: activities against Botrytis cinerea (growth inhibition)
[6] = Botrytis cinerea, 10 mg/L, Table 7, read-out: activities against Botrytis cinerea (growth inhibition)
[7] = Sclerotinia sclerotiorum, Table 5, read-out: activities against Sclerotinia sclerotiorum (growth inhibition)
[8] = Sclerotinia sclerotiorum, 2.5 mg/L, Table 4, read-out: activities against Sclerotinia sclerotiorum (growth inhibition)
[9] = Sclerotinia sclerotiorum, 2.5 mg/L, Table 5, read-out: activities against Sclerotinia sclerotiorum (growth inhibition)
[10] = Sclerotinia sclerotiorum, 5 mg/L, Table 4, read-out: activities against Sclerotinia sclerotiorum (growth inhibition)
[11] = Sclerotinia sclerotiorum, 5 mg/L, Table 5, read-out: activities against Sclerotinia sclerotiorum (growth inhibition)
[12] = Sclerotinia sclerotiorum, 10 mg/L, Table 4, read-out: activities against Sclerotinia sclerotiorum (growth inhibition)
[13] = read-out: activities against Aphis fabae (mortality)

SMILES: CCCOc1ccc([N+](=O)[O-])c(N(CCC)Cc2cnc(Cl)s2)n1 [Compound 10]
- activities against Botrytis cinerea (growth inhibition rating) (Botrytis cinerea): B (B, 90≧inhibition (%)>70)
- activities against Sclerotinia sclerotiorum (growth inhibition rating) (Sclerotinia sclerotiorum): B (B, 90≧inhibition (%)>70)

SMILES: COc1nc(NCc2cnc(Cl)s2)ccc1[N+](=O)[O-] [Compound 47]
- activities against Botrytis cinerea (growth inhibition rating) (Botrytis cinerea): C (C, 70≧inhibition (%)>50)

SMILES: CCOc1ccc([N+](=O)[O-])c(N(CC)Cc2cnc(Cl)s2)n1 [Compound 04, 6-ethoxy-N-((2-chlorothiazole-5-yl)methyl)-N-ethyl-3-nitropyridine-2-amine]
- inhibition at 0.1562 µg/mL (Botrytis cinerea; [1]): 63%
- inhibition at 0.3125 µg/mL (Botrytis cinerea; [1]): 76%
- inhibition at 0.625 µg/mL (Botrytis cinerea; [1]): 81%
- inhibition at 1.255 µg/mL (Botrytis cinerea; [1]): 82%
- inhibition at 2.5 µg/mL (Botrytis cinerea; [2]): 70%
- inhibition at 2.5 µg/mL (Botrytis cinerea; [3]): 87%
- inhibition at 5 µg/mL (Botrytis cinerea; [4]): 78%
- inhibition at 5 µg/mL (Botrytis cinerea; [5]): 90%
- inhibition at 10 µg/mL (Botrytis cinerea; [6]): 94%
- inhibition at 25 µg/mL (Botrytis cinerea; Botrytis cinerea): > 90%
- inhibition at 0.1562 µg/mL (Sclerotinia sclerotiorum; [7]): 53%
- inhibition at 0.3125 µg/mL (Sclerotinia sclerotiorum; [7]): 59%
- inhibition at 0.625 µg/mL (Sclerotinia sclerotiorum; [7]): 61%
- inhibition at 1.255 µg/mL (Sclerotinia sclerotiorum; [7]): 65%
- inhibition at 2.5 µg/mL (Sclerotinia sclerotiorum; [8]): 75%
- inhibition at 2.5 µg/mL (Sclerotinia sclerotiorum; [9]): 70%
- inhibition at 5 µg/mL (Sclerotinia sclerotiorum; [10]): 90%
- inhibition at 5 µg/mL (Sclerotinia sclerotiorum; [11]): 75%
- inhibition at 10 µg/mL (Sclerotinia sclerotiorum; [12]): 100%
- inhibition at 25 µg/mL (Sclerotinia sclerotiorum; Sclerotinia sclerotiorum): > 90%
- inhibition at 2.5 µg/mL (Alternaria alternata; Alternaria alternata, 2.5 mg/L, read-out: activities against Alternaria alternata (growth inhibition)): 55%
- inhibition at 5 µg/mL (Alternaria alternata; Alternaria alternata, 5 mg/L, read-out: activities against Alternaria alternata (growth inhibition)): 60%
- inhibition at 10 µg/mL (Alternaria alternata; Alternaria alternata, 10 mg/L, read-out: activities against Alternaria alternata (growth inhibition)): 70%
- inhibition at 25 µg/mL (Alternaria alternata; Alternaria alternata, 25 mg/L, read-out: activities against Alternaria alternata (growth inhibition rating)): 70 to 90%
- mortality at 500 µg/mL (Aphis fabae): > 90%
- mortality at 6.25 µg/mL (Aphis fabae; [13]): 0%
- mortality at 25 µg/mL (Aphis fabae; [13]): 26.7%
- mortality at 100 µg/mL (Aphis fabae; [13]): 46.7%

SMILES: CCN(Cc1cnc(Cl)s1)c1nc(N(C)C)ccc1[N+](=O)[O-] [Compound 28, 6-dimethylamino-N-((2-chlorothiazole-5-yl)methyl)-N-ethyl-3-nitropyridine-2-amine]
- inhibition at 1.25 µg/mL (Botrytis cinerea; Botrytis cinerea, 1.25 mg/L, Table 7, read-out: activities against Botrytis cinerea (growth inhibition)): 79%
- inhibition at 2.5 µg/mL (Botrytis cinerea; [2]): 86%
- inhibition at 5 µg/mL (Botrytis cinerea; [4]): 91%
- inhibition at 10 µg/mL (Botrytis cinerea; [6]): 96%
- inhibition at 25 µg/mL (Botrytis cinerea; Botrytis cinerea): > 90%
- melting point: 74.6 to 78.4 °C
- inhibition at 1.25 µg/mL (Sclerotinia sclerotiorum; Sclerotinia sclerotiorum, 1.25 mg/L, Table 4, read-out: activities against Sclerotinia sclerotiorum (growth inhibition)): 42%
- inhibition at 2.5 µg/mL (Sclerotinia sclerotiorum; [8]): 64%
- inhibition at 5 µg/mL (Sclerotinia sclerotiorum; [10]): 82%
- inhibition at 10 µg/mL (Sclerotinia sclerotiorum; [12]): 90%
- inhibition at 25 µg/mL (Sclerotinia sclerotiorum; Sclerotinia sclerotiorum): > 90%

SMILES: CCNc1ccc([N+](=O)[O-])c(N(CC)Cc2cnc(Cl)s2)n1 [Compound 24]
- activities against Botrytis cinerea (growth inhibition rating) (Botrytis cinerea): B (B, 90≧inhibition (%)>70)

SMILES: COC(=O)NC(=S)Nc1ccccc1NC(=S)NC(=O)OC [Thiophanate-Methyl, reference compound]
- inhibition at 0.1562 µg/mL (Botrytis cinerea; [1]): 18%
- inhibition at 0.3125 µg/mL (Botrytis cinerea; [1]): 75%
- inhibition at 0.625 µg/mL (Botrytis cinerea; [1]): 88%
- inhibition at 1.255 µg/mL (Botrytis cinerea; [1]): 93%
- inhibition at 2.5 µg/mL (Botrytis cinerea; [3]): 98%
- inhibition at 5 µg/mL (Botrytis cinerea; [5]): 100%
- inhibition at 0.1562 µg/mL (Sclerotinia sclerotiorum; [7]): 33%
- inhibition at 0.3125 µg/mL (Sclerotinia sclerotiorum; [7]): 47%
- inhibition at 0.625 µg/mL (Sclerotinia sclerotiorum; [7]): 63%
- inhibition at 1.255 µg/mL (Sclerotinia sclerotiorum; [7]): 72%
- inhibition at 2.5 µg/mL (Sclerotinia sclerotiorum; [9]): 77%
- inhibition at 5 µg/mL (Sclerotinia sclerotiorum; [11]): 85%

SMILES: CCOc1ccc([N+](=O)[O-])c(N(Cc2cnc(Cl)s2)C(C)C)n1 [Compound 31]
- activities against Botrytis cinerea (growth inhibition rating) (Botrytis cinerea): B (B, 90≧inhibition (%)>70)

SMILES: CCCN(Cc1cnc(Cl)s1)c1nc(OC)ccc1[N+](=O)[O-] [Compound 08]
- activities against Botrytis cinerea (growth inhibition) (Botrytis cinerea; 2.5 mg/L, Table 7): 68%
- activities against Botrytis cinerea (growth inhibition) (Botrytis cinerea; 5 mg/L, Table 7): 70%
- activities against Botrytis cinerea (growth inhibition) (Botrytis cinerea; 10 mg/L, Table 7): 70%
- activities against Botrytis cinerea (growth inhibition rating) (Botrytis cinerea): A (A, inhibition (%)>90)
- activities against Sclerotinia sclerotiorum (growth inhibition rating) (Sclerotinia sclerotiorum): A (A, inhibition (%)>90)
- activities against Alternaria alternata (growth inhibition) (Alternaria alternata; 2.5 mg/L): 45%
- activities against Alternaria alternata (growth inhibition) (Alternaria alternata; 5 mg/L): 48%
- activities against Alternaria alternata (growth inhibition) (Alternaria alternata; 10 mg/L): 60%
- activities against Alternaria alternata (growth inhibition rating) (Alternaria alternata; 25 mg/L): C (C, 70≧inhibition (%)>50)

SMILES: CCN(Cc1cnc(Cl)s1)c1nc(Cl)ccc1Cl
- melting point: 95.8 to 96.8 °C

SMILES: CCN(Cc1sc(C)nc1C)c1nc(OC)ccc1[N+](=O)[O-] [Compound 44]
- activities against Botrytis cinerea (growth inhibition rating) (Botrytis cinerea): A (A, inhibition (%)>90)
- activities against Sclerotinia sclerotiorum (growth inhibition) (Sclerotinia sclerotiorum; 2.5 mg/L, Table 4): 70%
- activities against Sclerotinia sclerotiorum (growth inhibition) (Sclerotinia sclerotiorum; 5 mg/L, Table 4): 75%
- activities against Sclerotinia sclerotiorum (growth inhibition) (Sclerotinia sclerotiorum; 10 mg/L, Table 4): 87%
- activities against Sclerotinia sclerotiorum (growth inhibition rating) (Sclerotinia sclerotiorum): A (A, inhibition (%)>90)
- activities against Alternaria alternata (growth inhibition rating) (Alternaria alternata; 25 mg/L): B (B, 90≧inhibition (%)>70)

SMILES: CCOc1nc(N(CC)Cc2cnc(Cl)s2)ccc1[N+](=O)[O-] [Compound 45]
- mortality at 500 µg/mL (Aphis fabae): 70 to 90%

SMILES: CCCOc1ccc([N+](=O)[O-])c(N(CC)Cc2cnc(Cl)s2)n1 [Compound 07]
- activities against Botrytis cinerea (growth inhibition) (Botrytis cinerea; 2.5 mg/L, Table 7): 44%
- activities against Botrytis cinerea (growth inhibition) (Botrytis cinerea; 5 mg/L, Table 7): 52%
- activities against Botrytis cinerea (growth inhibition) (Botrytis cinerea; 10 mg/L, Table 7): 68%
- activities against Botrytis cinerea (growth inhibition rating) (Botrytis cinerea): B (B, 90≧inhibition (%)>70)
- activities against Sclerotinia sclerotiorum (growth inhibition rating) (Sclerotinia sclerotiorum): B (B, 90≧inhibition (%)>70)
- activities against Alternaria alternata (growth inhibition) (Alternaria alternata; 2.5 mg/L): 20%
- activities against Alternaria alternata (growth inhibition) (Alternaria alternata; 5 mg/L): 36%
- activities against Alternaria alternata (growth inhibition) (Alternaria alternata; 10 mg/L): 45%
- activities against Alternaria alternata (growth inhibition rating) (Alternaria alternata; 25 mg/L): C (C, 70≧inhibition (%)>50)

SMILES: COc1ccc([N+](=O)[O-])c(N(C)Cc2cnc(Cl)s2)n1 [Compound 17]
- activities against Alternaria alternata (growth inhibition rating) (Alternaria alternata; 25 mg/L): B (B, 90≧inhibition (%)>70)

SMILES: CCN(Cc1cnc(Br)s1)c1nc(OC)ccc1[N+](=O)[O-] [Compound 33, 6-methoxy-N-((2-bromothiazole-5-yl)methyl)-N-ethyl-3-nitropyridine-2-amine]
- inhibition at 25 µg/mL (Botrytis cinerea; Botrytis cinerea): 70 to 90%
- inhibition at 2.5 µg/mL (Sclerotinia sclerotiorum; [8]): 91%
- inhibition at 5 µg/mL (Sclerotinia sclerotiorum; [10]): 100%
- inhibition at 10 µg/mL (Sclerotinia sclerotiorum; [12]): 100%
- inhibition at 25 µg/mL (Sclerotinia sclerotiorum; Sclerotinia sclerotiorum): > 90%

SMILES: CCCN(Cc1cnc(Cl)s1)c1nc(OCC)ccc1[N+](=O)[O-] [Compound 09]
- activities against Botrytis cinerea (growth inhibition) (Botrytis cinerea; 2.5 mg/L, Table 7): 52%
- activities against Botrytis cinerea (growth inhibition) (Botrytis cinerea; 5 mg/L, Table 7): 65%
- activities against Botrytis cinerea (growth inhibition) (Botrytis cinerea; 10 mg/L, Table 7): 65%
- activities against Botrytis cinerea (growth inhibition rating) (Botrytis cinerea): A (A, inhibition (%)>90)
- activities against Sclerotinia sclerotiorum (growth inhibition rating) (Sclerotinia sclerotiorum): A (A, inhibition (%)>90)

SMILES: CCN(Cc1cnc(Cl)s1)c1nc(Cl)ccc1[N+](=O)[O-]
- melting point: 71.4 to 74.1 °C

Reference: patent publication US9386769B2 (HUNAN RESEARCH INSTITUTE OF CHEMICAL INDUSTRY CO., LTD., priority 2011, dated 2016)
